This note sets out measurements from patent publication US20240108629A1, “AZAQUINAZOLINE DERIVATIVES FOR USE IN TREATING OR PREVENTING DIROFILARIA INFECTION IN A MAMMAL” (Liverpool School of Tropical Medicine, priority 2021, published 2024).

Test [1] deals with D. immitis L3-L4 larval Wolbachia in NSG mice. Briefly: In vivo D. immitis larvae mouse assay (Example 3A). The conditions noted are these: for D. immitis L4 Efficacy (median % reduction Wolbachia): larvae retrieved 2 weeks after infection.
Another test has as its system D. immitis mf Wolbachia. The test can be described thus: In vitro D. immitis microfilariae assay (Wolbachia wsp copy number by qPCR). The class given is cell-based. Particulars: six-day continuous exposure in vitro. In general terms: Quantitative PCR measures a nucleic acid by following its amplification.
For test [2], the system named is D. immitis L3-L4 larval Wolbachia in NSG mice. The test can be described thus: In vivo D. immitis larvae mouse assay (Example 3B). Particulars: for n larvae depleted ≥50% (number/total) / n larvae depleted ≥50% (percentage of larvae): oral 200 mpk bid x 1; for D. immitis L4 Efficacy (median % reduction Wolbachia): oral 200 mpk bid x 1 (single day dosing), larvae retrieved 2 weeks after infection.

For a further test, the system named is D. immitis L4 Wolbachia. The test can be described thus: In vitro D. immitis L4 larvae assay (Wolbachia wsp copy number by qPCR). The test is classed as cell-based. The conditions noted are these: for D. immitis L4 Efficacy (median % reduction Wolbachia): six-day continuous exposure in vitro.

As for `C[C@H]1COCCN1c1nc(NCc2cccnc2C(F)(F)F)c2cccnc2n1` [Compound A, (S)-2-(3-methylmorpholino)-N-((2-(trifluoromethyl)pyridin-3-yl)methyl)pyrido[2,3-d]pyrimidin-4-amine], the “n larvae depleted ≥80% (number/total)” value in test [1] (oral 200 mpk bid x 2) is recorded as 10/11. In test [1] (oral 200 mpk bid x 2), the “n larvae depleted ≥80% (percentage of larvae)” value is reported as “(90.9%)”. The “D. immitis L4 Efficacy (median % reduction Wolbachia)” value in test [1] (oral 200 mpk bid x 2 (days 1-2), 200 mg/kg) is recorded as 89.7%; in test [2] (200 mg/kg), 52.1%. In addition, the “D. immitis mf Efficacy (median % reduction Wolbachia)” value with D. immitis mf Wolbachia (50 nM) is recorded as 64.1%; in the test on D. immitis mf Wolbachia (200 nM) it was 88.8%; with D. immitis mf Wolbachia (5000 nM) it was 96.0%. In addition, the “n larvae depleted ≥50% (number/total)” value in test [2] is 4/5. Moreover, the “n larvae depleted ≥50% (percentage of larvae)” value in test [2] is recorded as “(80%)”.
For the compound `CC1(C)CCN(c2nc(NCc3cccnc3C(F)(F)F)c3cccnc3n2)CC1` [Compound B, 2-(4,4-dimethylpiperidin-1-yl)-N-((2-(trifluoromethyl)pyridin-3-yl)methyl)pyrido[2,3-d]pyrimidin-4-amine], the “D. immitis L4 Efficacy (median % reduction Wolbachia)” value in the test on D. immitis L4 Wolbachia (1 nM) is listed as 45.4%; with D. immitis L4 Wolbachia (10 nM), 50.7%; with D. immitis L4 Wolbachia (50 nM), 57.4%. The “Wolbachia depletion in D. immitis L4” value with D. immitis L4 Wolbachia (doses between 50-10 nM, in vitro) is over 50%. Also, the “D. immitis mf Efficacy (median % reduction Wolbachia)” value was 63.9% with D. immitis mf Wolbachia (0.5 nM) and 53.6% with D. immitis mf Wolbachia (50 nM).
Regarding `FC1(F)CCN(c2nc(NCc3ccccc3C(F)(F)F)c3cccnc3n2)CC1` [Compound C, 2-(4,4-difluoropiperidin-1-yl)-N-(2-(trifluoromethyl)benzyl)pyrido[2,3-d]pyrimidin-4-amine], in test [2], the “n larvae depleted ≥50% (number/total)” value was 2/3, the “n larvae depleted ≥50% (percentage of larvae)” value was “(67%)” and the “D. immitis L4 Efficacy (median % reduction Wolbachia)” value amounted to 61.7%.
The matching figures for `FC(F)(F)OC1CCN(c2nc(NCc3cccnc3C(F)(F)F)c3cccnc3n2)CC1` [Compound D, 2-(4-(trifluoromethoxy)piperidin-1-yl)-N-((2-(trifluoromethyl)pyridin-3-yl)methyl)pyrido[2,3-d]pyrimidin-4-amine]: 8/12, “(67%)” and 53.6%.
`C[C@H]1c2cccc(O)c2C(=O)C2=C(O)[C@]3(O)C(=O)C(C(N)=O)=C(O)[C@@H](N(C)C)[C@@H]3[C@@H](O)[C@@H]21` [Doxycycline, doxycycline, reference compound]: the “n larvae depleted ≥80% (number/total)” value in test [1] (oral 50 mpk qd x 7) was 4/9. For the same compound, the “n larvae depleted ≥80% (percentage of larvae)” value in test [1] (oral 50 mpk qd x 7) was “(44.4%)”. The “D. immitis L4 Efficacy (median % reduction Wolbachia)” value was 69.6% in test [1] (oral 50 mpk qd x 7 (days 1-7 post-infection)) and 65.9% in the test with D. immitis L4 Wolbachia (5000 nM). For the same compound, the figures for the “D. immitis mf Efficacy (median % reduction Wolbachia)” value in the test on D. immitis mf Wolbachia (50 nM) and in the test with D. immitis mf Wolbachia (5000 nM) were 10.0% and 58.8%, respectively.
